# Experimental data reported in patent US6420367B1, “Pyrimidine derivatives exhibiting antitumor activity” (Shionogo & Co., Ltd., priority 1998, dated 2002).
# How the values were obtained:
# [1] = tested on: DT-R cells (pRRE3-luc-transfected v-ki-ras-transformed NIH3T3 cells); signal derived from Ras oncogene products; assay: Inhibitory effect against cellular signaling derived from Ras oncogene products: luciferase reporter, dissociation of DT-R from DT-C activity (MAC); assay type: cell-based, mouse; details: minimal tested concentration at which luciferase activities of DT-C cells and DT-R cells dissociated
# From the text: (§1) Test Example 1 Inhibitory Effect Against Cellular Signaling Derived From Ras Oncogene Products
# (§2) 1) Establishment of Cell Lines Used in Assay
# (§3) Based on the reporter plasmid (pGV-P (Toyo Ink, Japan)), in which luciferase gene was ligated to SV40-derived minimal promoter, we constructed a plasmid designated pRRE3-luc by inserting 3 copies of chemically synthesized oligonucleotides (Sequence: CAGGATATGACTCT, derived from mouse NVL-3 (M. A. Reddy et al.(1992)Mol. Endocrinol., 6, 1051)) into upstream of the promoter. v-ki-ras-transformed NIH3T3 cells (DT cells, provided by Dr. Makoto Noda (Kyoto Univ., School of medicine)) were transfected with this plasmid by liposome-mediated transfection and transfected cell lines stably incorporated and maintained each plasmid were obtained. We named pGV-P and pRRE3-transfected cell line as DT-C and DT-R, respectively and used in the assay described below.
# (§4) 2) Preparation of Samples
# (§5) i) All the cell lines were cultured in Dulbecco's Modified Essential Medium (DMEM: 10% Fetal Calf Serum(FCS: Hyclone, USA)) including […] kanamycin (Meiji Seika, Japan) in humidified incubator under condition of 5% CO2 at 37° C.
# (§6) ii) DT-C and DT-R cells were seeded at 2500 cells/well into flat-bottom 96 well multiplate (Sumitomo bakelite) and incubated for 24 hours.
# (§7) iii) Test compounds were prepared as 1 mg/ml DMSO solution.
# (§8) iv) The solution of test compounds were added to the culture. Tested compounds are used at the concentration from […] to 0.51 ng/ml with by 3-fold dilution.
# (§9) v) After 24 hours, the culture supernatant was completely aspirated and […] of cell-lysing solution (PGC-50 (Toyo Ink, Japan)) was added before cells were dried up. In order to the cells were lysed completely, multiwell plates were left at room temperature for 10 to 30 min. The plates were wrapped up and stored at −20° C. till the day of measurement.
# (§10) 3) Measurement of Samples
# (§11) i) Melt the samples by putting 96 well multiplate at 37° C. and add 90 μl/well 25 mM Tris (pH 7.5).
# (§12) ii) Transfer 50 μl of the sample (110 μl) to the 96 well microplate for measurement (Microlite 1 (Dynatech)).
# (§13) iii) Measure the samples by the luminometer, LUMINOUS CT9000D (Dia-Yatron, Japan). We used Pickagene luminescence kit PGL2000 or LT2.0 (Toyo Ink, Japan) as substrates for luminescence measurement (50 μl/well).
# (§14) 4) Judgment of the Results
# (§15) i) The luciferase activity of DT-C cells and DT-R cells were plotted in the graph where the relative activity and the compound concentration were expressed as Y-axis and X-axis, respectively. We judged by the degree of dissociation between the activities of DT-C cells and DT-R cells as an index.
# (§16) ii) Concretely, efficacy of the compound was expressed by two values described below.
# a) Among the points of concentration tested, the minimal concentration (Minimal Active Concentration: MAC), at which the activities of DT-C cells and DT-R cells dissociated, was shown as an index of efficacy of the compound.
# [2] = tested on: human squamous lung cancer RERF-RC-AI; assay: In vitro cell growth inhibition test, MTT assay; assay type: cell-based; details: MTT assay 4 days after compound addition
# Method in brief: (§17)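 Read-out is MTT-based cell growth inhibition, run in parallel on human lung, colon and pancreatic (PANC-1) tumour lines.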
# [3] = tested on: human pancreas cancer PANC-1; assay: In vitro cell growth inhibition test, MTT assay; assay type: cell-based; details: MTT assay 4 days after compound addition
# Method in brief: as §17
# [4] = tested on: human lung adenocarcinoma A549; assay: In vitro cell growth inhibition test, MTT assay; assay type: cell-based; details: MTT assay 4 days after compound addition
# Method in brief: as §17
# [5] = tested on: human squamous lung cancer Ma44; assay: In vitro cell growth inhibition test, MTT assay; assay type: cell-based; details: MTT assay 4 days after compound addition
# Method in brief: as §17
# human colon cancer HT29 = assay: In vitro cell growth inhibition test, MTT assay; assay type: cell-based; details: MTT assay 4 days after compound addition
# Method in brief: as §17
# [6] = tested on: DT-C cells (pGV-P-transfected v-ki-ras-transformed NIH3T3 cells); assay: Luciferase activity in control DT-C cells (IC50-C): non-specific transcription-inhibitory effect or cytotoxicity; assay type: cell-based, mouse; details: tested concentration nearest to 50% inhibition in DT-C cells; index of non-specific transcription inhibition or cytotoxicity
# From the text: as §1, §2, §3, §4, §5, §6, §7, §8, §9, §10, §11, §12, §13, §14, §15, §16
# b) Among the points of concentration tested, the concentration which is the nearest to 50% inhibition concentration at DT-C cells (IC50-C), was shown as an index of non-specific transcription-inhibitory effect or of cytotoxicity. In case of positive compounds, 50% inhibition concentration above the area of active concentration in DT-C cells was expressed as IC50-C.
Compound,"IC50, RERF-LC-AI [2] [ng/mL]","IC50, PANC-1 [3] [ng/mL]","IC50, A549 [4] [ng/mL]","IC50, Ma44 [5] [ng/mL]","IC50, HT29 (human colon cancer HT29) [ng/mL]",MAC (Minimal Active Concentration) [1] [µg/mL],IC50-C [6] [µg/mL]
CCNC(N)=Nc1nc(C)ncc1CSc1nnc(-c2ccc([N+](=O)[O-])cc2)o1 [Compound A-185],2.9,4.1,13,6.2,6.4,0.0137,
CCNC(=Nc1nc(C)ncc1CSc1nnc(-c2cccnc2N)o1)NCC [Compound D-1],,,,,,1.11,>10
CCNC(=Nc1nc(C)ncc1CSc1nnc(-c2ccccc2NC(C)=O)o1)NC [Compound A-2],9.0,15,17,22,15,0.0412,
CCNC(=Nc1nc(C)ncc1CSc1nnc(-c2ccc([N+](=O)[O-])cc2)o1)NC.Cl [Compound A-163],,,,,,0.0137,>10
CCCNC(=Nc1nc(CC)ncc1CSc1nnc(-c2ccc([N+](=O)[O-])cc2)o1)NC [Compound A-150],16,37,5,140,31,0.123,

# The next lines start with results.
"IC50, RERF-LC-AI [2] [ng/mL]","IC50, PANC-1 [3] [ng/mL]","IC50, A549 [4] [ng/mL]","IC50, Ma44 [5] [ng/mL]","IC50, HT29 (human colon cancer HT29) [ng/mL]",Compound,MAC (Minimal Active Concentration) [1] [µg/mL],IC50-C [6] [µg/mL]
50,81,180,77,39,CCNC(=Nc1nc(C)ncc1CSc1nnc(-c2ccc([N+](=O)[O-])cc2F)o1)NCC [Compound A-132],0.123,
8,16,20,100,8,CCNC(=Nc1nc(C)ncc1CSc1nnc(-c2ccc(N)cc2N)o1)NCC [Compound A-76],0.0137,
3.7,7.2,17,7.2,6,CNC(=Nc1ncncc1CSc1nnc(-c2ccc([N+](=O)[O-])cc2)o1)NC [Compound A-173],0.123,
26,15,35,90,6.6,CCNC(=Nc1ncncc1CSc1nnc(-c2ccc(N)cc2)o1)NCC [Compound A-3],0.0412,
3.6,5,14,24,6.7,CCCNC(=Nc1ncncc1CSc1nnc(-c2ccc(N)cc2)o1)NCC [Compound A-178],0.0412,
12,17,52,16,10,CCCNC(=Nc1nc(C)ncc1CSc1nnc(-c2ccc([N+](=O)[O-])cc2)o1)NCC.Cl [Compound A-188],0.0137,
140,210,2100,300,89,CCNC(=Nc1ncncc1CSc1nnc(-c2ccc([N+](=O)[O-])cc2)o1)NCCN [Compound A-122],1.11,
24,55,1300,100,23,CCNC(=Nc1ncncc1CSc1nnc(-c2ccc(SC)cc2)o1)NCC [Compound A-120],0.123,
